Results as given in patent publication US20240207245A1, “METHOD FOR INHIBITING METASTASIS OF TRIPLE-NEGATIVE BREAST CANCER USING ROSOXACIN” (National Yang Ming Chiao Tung University, priority 2022, published 2024).

Legend:
Type in all cases: cell-based, human
[1] = tested on: highly metastatic breast cancer cell line (HMB cells); assay: Transwell Matrigel cell invasion assay, LPS-induced, HMB cells; conditions: LPS 1 μM + quinolone antibiotic 1 μM, 24 hours, compared with control group H2 (LPS only), FIG. 1
Procedure: (§1) In addition, the highly metastatic breast cancer cell line (abbreviated as HMB cells) used in the following experiments was obtained according to the following preparation processes: the MDA-MB-231 cells (2.5×10^6 cells) were injected into the mammary fat pad of a severe combined immune deficient (SCID) mice (purchased from BioLasco Taiwan Co., Ltd; 4 weeks old, with a body weight of approximately 20 g), and the triple-negative breast cancer cells metastasized to the lung of the SCID mice were harvested after 12 weeks. Next, the triple-negative breast cancer cells (2.5×10^6 cells) thus obtained were injected into the mammary fat pad of another SCID mice, and the HMB cells metastasized to the lung of the another SCID mice were harvested after 8 weeks.
The HMB cells prepared in section 1 of “General Experimental Materials” were divided into 8 groups, namely, two control groups (i.e., control groups H1 and H2), one experimental group (i.e., experimental group H), and five comparative groups (i.e., comparative groups H1 to H5). In addition, the MDA-MB-231 cells prepared in section 1 of “General Experimental Materials” were divided into three groups, namely, two control groups (i.e., control groups M1 and M2) and one experimental group (i.e., experimental group M).
Each group of the cells was seeded at a concentration of 1×10^5 cells per well into respective permeable Transwell® insert (Corning Inc.) for a 24-well plate.
Thereafter, the Transwell® inserts were placed into the 24-well plate that contained 0.6 mL of DMEM supplemented with 10% FBS in each well, followed by cultivation in a humidified incubator (37° C., 5% CO2, 95% relative humidity) for 24 hours.
Subsequently, the culture medium in each Transwell® insert was removed, and the respective Transwell® insert was washed with phosphate-buffered saline (PBS). The cells migrating through the polycarbonate membrane and attaching to the bottom side of the polycarbonate membrane were subjected to a fixation treatment with a 4% formaldehyde solution (in PBS) at room temperature for 15 minutes. Then, the non-migrating cells were removed using a cotton swab, followed by conducting staining using a 1% crystal violet solution according to techniques well-known to those skilled in the art. The number of the stained cells was counted under a Leica DMI3000 B inverted microscope (Leica Microsystems, Wetzlar, Germany) at 100× magnification, followed by analysis using Image-Pro Software (version 6.0).
The cell invasion percentage (%) of each group was calculated by substituting the thus obtained number of stained cells into the following Equation (I):
[formula] • where A=cell invasion percentage (%) • B=number of stained cells in respective group • C=number of stained cells in the control group H1 or the control group M1
(§2) The data thus obtained were analyzed according to the method described in section 1 of “General Procedures”.

MDA-MB-231 cells = assay: Transwell Matrigel cell invasion assay, LPS-induced, MDA-MB-231 cells; conditions: LPS 1 μM + rosoxacin 1 μM, 24 hours, compared with control group M2 (LPS only), FIG. 2
Source text: Human breast cancer cell line MDA-MB-231 (ATCC HTB-26) was purchased from American Type Culture Collection (ATCC, Manassas, Va., USA).
The HMB cells prepared in section 1 of “General Experimental Materials” were divided into 8 groups, namely, two control groups (i.e., control groups H1 and H2), one experimental group (i.e., experimental group H), and five comparative groups (i.e., comparative groups H1 to H5). In addition, the MDA-MB-231 cells prepared in section 1 of “General Experimental Materials” were divided into three groups, namely, two control groups (i.e., control groups M1 and M2) and one experimental group (i.e., experimental group M). […]
Subsequently, the culture medium in each Transwell® insert was removed, and the respective Transwell® insert was washed with phosphate-buffered saline (PBS). […] The number of the stained cells was counted under a Leica DMI3000 B inverted microscope (Leica Microsystems, Wetzlar, Germany) at 100× magnification, followed by analysis using Image-Pro Software (version 6.0).
The cell invasion percentage (%) of each group was calculated by substituting the thus obtained number of stained cells into the following Equation (I): […]
as §2

[2] = tested on: highly metastatic breast cancer cell line (HMB cells); assay: Tumor-sphere formation assay, LPS-induced, HMB cells; conditions: LPS 1 μM + rosoxacin 1 μM, 21 days, compared with control group H2 (LPS only), FIG. 3
Procedure: as §1
The sphere formation medium used in this example was prepared by supplementing Gibco DMEM/F-12 medium with the ingredients shown in Table 3.
The HMB cells prepared in section 1 of “General Experimental Materials” were divided into three groups, namely, two control groups (i.e., control groups H1 and H2) and one experimental group (i.e., experimental group H). […]
The number of tumor spheres was counted under a Leica DMI3000 B inverted microscope (Leica Microsystems, Wetzlar, Germany) at 100× magnification.
as §2

Compound	cell invasion percentage [1]	cell invasion percentage (MDA-MB-231 cells)	number of tumor spheres [2]
NC1CCN(c2c(F)cc3c(=O)c(C(=O)O)cn(C4CC4)c3c2Cl)C1 (stereo not shown) [Clinafloxacin]	significantly higher than that determined in the control group H2	–	–
C[C@H]1NCc2cc(-c3ccc4c(=O)c(C(=O)O)cn(C5CC5)c4c3OC(F)F)ccc21 [Garenoxacin]	substantially similar to that determined in the control group H2	–	–
COc1c(N2CCNC(C)C2)c(F)cc2c(=O)c(C(=O)O)cn(C3CC3)c12 (stereo not shown) [Gatifloxacin]	substantially similar to that determined in the control group H2	–	–
CCn1cc(C(=O)O)c(=O)c2cc(F)c(N3CCNCC3)cc21 [Norfloxacin]	substantially similar to that determined in the control group H2	–	–
CCn1cc(C(=O)O)c(=O)c2ccc(-c3ccncc3)cc21 [rosoxacin, 1-ethyl-4-oxo-7-(4-pyridyl)-1,4-dihydroquinoline-3-carboxylic acid]	significantly lower than that determined in the control group H2	significantly lower than that determined in the control group M2	significantly lower than that determined in the control group H2
